Laboratory results reported in patent EP0315197B1 (GÖDECKE AKTIENGESELLSCHAFT, priority 1987, dated 1989).
Where a name gives a salt, the structure may show the parent alone. Read-outs that look alike come from different tables or passages of the source.

Columns and labels:
Hypertonie [1] = conditions: for Senkung der Herzfrequenz / Senkung des systolischen Blutdrucks im Sitzen: 3 weeks; for Abnahme des diastolischen Blutdrucks: after 3 weeks vs end of placebo phase, depending on time of measurement; for Response-Rate zum Zeitpunkt 8 Uhr: pre-dose; for globale Response-Rate (Anteil der Patienten mit Response zu allen drei Meßzeitpunkten): response = diastolic decrease of at least 10 mmHg or below 90 mmHg; for DBD sitzend / DBD stehend / HR sitzend / SBD sitzend / SBD stehend / HR stehend: mean (SD)
Source text: Die Patienten befanden sich stationär in Reha-Kliniken.
Nach Absetzen einer eventuellen antihypertensiven Vorbehandlung erhielten die Patienten zunächst 1 Woche Placebo.
Zur Beurteilung der Wirksamkeit wurde der diastolische Blutdruck im Sitzen zu 3 verschiedenen Tageszeiten (8, 11 und 17 Uhr) herangezogen. "Response" war definiert als eine Senkung des diastolischen Blutdrucks um mindestens 10 mmHg oder unter einen Wert von 90 mmHg.

Hypertonie [2] = conditions: for Response-Rate / Senkung des mittleren systolischen Blutdrucks im Sitzen: 8 weeks; for Senkung des diastolischen Blutdrucks im Sitzen: after 8 weeks vs placebo phase, morning pre-dose, mean; for DBD sitzend / DBD stehend / HR sitzend / HR stehend / SBD sitzend / SBD stehend: mean (SD)
Procedure: In diese multizentrische randomisierte Doppelblind-Parallel-Studie wurden wiederum Hypertoniker der WHO-Klasse I-III eingeschlossen, deren diastolischer Blutdruck am Ende der Placebophase höher als 95 mmHg war. Einer 2-wöchigen Placebophase folgte eine Behandlungsphase von 8 Wochen. Das Therapieschema von 1 x tgl. 180 mg bzw. 2 x tgl. 90 mg glich dem der vorangegangenen Studie. Zur Beurteilung der Wirksamkeit wurde die Senkung des diastolischen Blutdrucks bei der Messung am Morgen herangezogen, die jeweils nach 8 Wochen Behandlung erzielt worden war. Die Blutdruckmessung erfolgte wiederum vor der Medikation, um Aufschluß über die 24-h-Wirkung bei der einmal täglichen Behandlung zu erhalten.

[3] = Kölle 1983; cited from earlier work
[4] = 5 p.m., 1 × 180 mg (n = 40), Basislinie (end of placebo phase)
[5] = 5 p.m., 1 × 180 mg (n = 40), Endpunkt (3 weeks)
[6] = 5 p.m., 2 × 90 mg (n = 42), Basislinie (end of placebo phase)
[7] = 5 p.m., 2 × 90 mg (n = 42), Endpunkt (3 weeks)
[8] = 8 a.m., 1 × 180 mg (n = 40), Basislinie (end of placebo phase)
[9] = 8 a.m., 1 × 180 mg (n = 40), Endpunkt (3 weeks)
[10] = 8 a.m., 2 × 90 mg (n = 42), Basislinie (end of placebo phase)
[11] = 8 a.m., 2 × 90 mg (n = 42), Endpunkt (3 weeks)
[12] = 11 a.m., 1 × 180 mg (n = 40), Basislinie (end of placebo phase)
[13] = 11 a.m., 1 × 180 mg (n = 40), Endpunkt (3 weeks)
[14] = 11 a.m., 2 × 90 mg (n = 42), Basislinie (end of placebo phase)
[15] = 11 a.m., 2 × 90 mg (n = 42), Endpunkt (3 weeks)
[16] = 1 × 180 mg (n = 30), Basislinie (end of placebo phase)
[17] = 1 × 180 mg (n = 30), Endpunkt (8 weeks)
[18] = 2 × 90 mg (n = 30), Basislinie (end of placebo phase)
[19] = 2 × 90 mg (n = 30), Endpunkt (8 weeks)

COc1ccc([C@@H]2Sc3ccccc3N(CCN(C)C)C(=O)[C@@H]2OC(C)=O)cc1 [Diltiazem, Diltiazemhydrochlorid]
Senkung der Herzfrequenz (Hypertonie [1]; 1 x 180 mg group): 4-8 Schläge pro Minute
Senkung des systolischen Blutdrucks im Sitzen (Hypertonie [1]; 1 x 180 mg group): 19-22 mmHg
Abnahme des diastolischen Blutdrucks (Hypertonie [1]; 1 x 180 mg group): 13-16 mmHg
Response-Rate zum Zeitpunkt 8 Uhr (Hypertonie [1]; 1 x 180 mg group): 87,5%
globale Response-Rate (Anteil der Patienten mit Response zu allen drei Meßzeitpunkten) (Hypertonie [1]; 1 x 180 mg group): 85%
Senkung der Herzfrequenz (Hypertonie [1]; 2 x 90 mg group): 4-8 Schläge pro Minute
Senkung des systolischen Blutdrucks im Sitzen (Hypertonie [1]; 2 x 90 mg group): 15-18 mmHg
Abnahme des diastolischen Blutdrucks (Hypertonie [1]; 2 x 90 mg group): 13-16 mmHg
Response-Rate zum Zeitpunkt 8 Uhr (Hypertonie [1]; 2 x 90 mg group): 81%
globale Response-Rate (Anteil der Patienten mit Response zu allen drei Meßzeitpunkten) (Hypertonie [1]; 2 x 90 mg group): 62%
DBD sitzend (Hypertonie [1]; [4]): 99.2 (3.9) mmHg
DBD stehend (Hypertonie [1]; [4]): 101.0 (4.8) mmHg
HR sitzend (Hypertonie [1]; [4]): 76.5 (9.2) 1/min
SBD sitzend (Hypertonie [1]; [4]): 158.9 (16.1) mmHg
SBD stehend (Hypertonie [1]; [4]): 158.4 (16.3) mmHg
DBD sitzend (Hypertonie [1]; [5]): 85.2 (8.8) mmHg
DBD stehend (Hypertonie [1]; [5]): 88.8 (8.9) mmHg
HR sitzend (Hypertonie [1]; [5]): 70.0 (7.2) 1/min
HR stehend (Hypertonie [1]; [5]): 78.6 (7.7) 1/min
SBD sitzend (Hypertonie [1]; [5]): 140.2 (14.2) mmHg
SBD stehend (Hypertonie [1]; [5]): 138.5 (14.8) mmHg
DBD sitzend (Hypertonie [1]; [6]): 99.9 (5.9) mmHg
DBD stehend (Hypertonie [1]; [6]): 102.5 (5.8) mmHg
HR sitzend (Hypertonie [1]; [6]): 77.0 (8.4) 1/min
SBD stehend (Hypertonie [1]; [6]): 156.7 (15.0) mmHg
DBD sitzend (Hypertonie [1]; [7]): 87.0 (10.7) mmHg
DBD stehend (Hypertonie [1]; [7]): 87.7 (9.2) mmHg
HR sitzend (Hypertonie [1]; [7]): 72.1 (8.1) 1/min
HR stehend (Hypertonie [1]; [7]): 79.6 (9.1) 1/min
SBD stehend (Hypertonie [1]; [7]): 138.6 (15.1) mmHg
DBD sitzend (Hypertonie [1]; [8]): 98.3 (3.9) mmHg
DBD stehend (Hypertonie [1]; [8]): 100.1 (7.1) mmHg
HR sitzend (Hypertonie [1]; [8]): 76.8 (9.4) 1/min
HR stehend (Hypertonie [1]; [8]): 87.2 (11.0) 1/min
SBD sitzend (Hypertonie [1]; [8]): 161.3 (16.2) mmHg
SBD stehend (Hypertonie [1]; [8]): 158.6 (16.4) mmHg
DBD sitzend (Hypertonie [1]; [9]): 85.3 (8.3) mmHg
DBD stehend (Hypertonie [1]; [9]): 87.3 (9.8) mmHg
HR sitzend (Hypertonie [1]; [9]): 73.7 (7.1) 1/min
HR stehend (Hypertonie [1]; [9]): 80.6 (7.4) 1/min
SBD stehend (Hypertonie [1]; [9]): 141.0 (14.8) mmHg
DBD sitzend (Hypertonie [1]; [10]): 99.8 (5.2) mmHg
DBD stehend (Hypertonie [1]; [10]): 102.0 (5.8) mmHg
HR sitzend (Hypertonie [1]; [10]): 76.4 (9.6) 1/min
SBD stehend (Hypertonie [1]; [10]): 155.5 (17.9) mmHg
DBD sitzend (Hypertonie [1]; [11]): 83.9 (10.7) mmHg
DBD stehend (Hypertonie [1]; [11]): 88.5 (9.7) mmHg
HR sitzend (Hypertonie [1]; [11]): 72.1 (8.2) 1/min
HR stehend (Hypertonie [1]; [11]): 79.0 (8.0) 1/min
SBD stehend (Hypertonie [1]; [11]): 137.4 (16.1) mmHg
DBD sitzend (Hypertonie [1]; [12]): 98.5 (3.9) mmHg
DBD stehend (Hypertonie [1]; [12]): 100.5 (5.8) mmHg
HR sitzend (Hypertonie [1]; [12]): 75.1 (9.2) 1/min
HR stehend (Hypertonie [1]; [12]): 84.4 (9.5) 1/min
SBD sitzend (Hypertonie [1]; [12]): 159.2 (18.2) mmHg
SBD stehend (Hypertonie [1]; [12]): 157.9 (19.6) mmHg
DBD sitzend (Hypertonie [1]; [13]): 83.3 (8.2) mmHg
DBD stehend (Hypertonie [1]; [13]): 87.1 (8.3) mmHg
HR sitzend (Hypertonie [1]; [13]): 71.1 (7.0) 1/min
HR stehend (Hypertonie [1]; [13]): 78.8 (6.9) 1/min
SBD sitzend (Hypertonie [1]; [13]): 137.6 (12.2) mmHg
SBD stehend (Hypertonie [1]; [13]): 137.1 (14.2) mmHg
DBD sitzend (Hypertonie [1]; [14]): 100.2 (5.4) mmHg
DBD stehend (Hypertonie [1]; [14]): 102.9 (5.6) mmHg
HR sitzend (Hypertonie [1]; [14]): 76.0 (9.1) 1/min
HR stehend (Hypertonie [1]; [14]): 83.6 (10.4) 1/min
SBD sitzend (Hypertonie [1]; [14]): 158.1 (16.5) mmHg
SBD stehend (Hypertonie [1]; [14]): 155.8 (17.7) mmHg
DBD sitzend (Hypertonie [1]; [15]): 85.4 (9.5) mmHg
DBD stehend (Hypertonie [1]; [15]): 87.3 (10.6) mmHg
HR sitzend (Hypertonie [1]; [15]): 71.3 (7.8) 1/min
HR stehend (Hypertonie [1]; [15]): 78.6 (8.6) 1/min
SBD sitzend (Hypertonie [1]; [15]): 140.1 (15.8) mmHg
SBD stehend (Hypertonie [1]; [15]): 135.7 (15.5) mmHg
Response-Rate (Hypertonie [2]; 1 x 180 mg group): 80%
Senkung des diastolischen Blutdrucks im Sitzen (Hypertonie [2]; 1 x 180 mg group): 13 mmHg
Senkung des mittleren systolischen Blutdrucks im Sitzen (Hypertonie [2]; 1 x 180 mg): 16 mmHg
DBD sitzend (Hypertonie [2]; [16]): 100.7 (3.0) mmHg
DBD stehend (Hypertonie [2]; [16]): 98.7 (3.2) mmHg
HR sitzend (Hypertonie [2]; [16]): 72.5 (4.9) 1/min
HR stehend (Hypertonie [2]; [16]): 74.9 (6.3) 1/min
SBD sitzend (Hypertonie [2]; [16]): 175.1 (16.6) mmHg
SBD stehend (Hypertonie [2]; [16]): 169.7 (19.8) mmHg
DBD sitzend (Hypertonie [2]; [17]): 87.8 (9.1) mmHg
DBD stehend (Hypertonie [2]; [17]): 84.8 (9.2) mmHg
HR sitzend (Hypertonie [2]; [17]): 68.7 (4.4) 1/min
HR stehend (Hypertonie [2]; [17]): 71.3 (5.2) 1/min
SBD sitzend (Hypertonie [2]; [17]): 159.0 (18.8) mmHg
SBD stehend (Hypertonie [2]; [17]): 150.5 (26.6) mmHg
Response-Rate (Hypertonie [2]; 2 x 90 mg group): 70%
Senkung des diastolischen Blutdrucks im Sitzen (Hypertonie [2]; 2 x 90 mg group): 12 mmHg
Senkung des mittleren systolischen Blutdrucks im Sitzen (Hypertonie [2]; 2 x 90 mg): 10 mmHg
DBD sitzend (Hypertonie [2]; [18]): 99.1 (3.2) mmHg
DBD stehend (Hypertonie [2]; [18]): 99.0 (3.1) mmHg
HR sitzend (Hypertonie [2]; [18]): 73.5 (6.5) 1/min
HR stehend (Hypertonie [2]; [18]): 75.9 (7.5) 1/min
SBD sitzend (Hypertonie [2]; [18]): 169.4 (19.7) mmHg
SBD stehend (Hypertonie [2]; [18]): 168.5 (22.1) mmHg
DBD sitzend (Hypertonie [2]; [19]): 88.4 (8.0) mmHg
DBD stehend (Hypertonie [2]; [19]): 86.9 (8.6) mmHg
HR sitzend (Hypertonie [2]; [19]): 69.8 (6.0) 1/min
HR stehend (Hypertonie [2]; [19]): 72.5 (7.0) 1/min
SBD sitzend (Hypertonie [2]; [19]): 159.2 (23.7) mmHg
SBD stehend (Hypertonie [2]; [19]): 156.7 (28.4) mmHg
Halbwertzeit für die Elimination, α-Phase [3]: 0,1 h
Halbwertzeit für die Elimination, β-Phase [3]: 2,1 h
Halbwertzeit für die Elimination, γ-Phase [3]: 9,8 h
